# pKi: −log10 of the molar value.
# Biological target: T1, recombinant human 5-HT6 receptor (Homo sapiens, UniProt P50406)
# T1 construct: expressed in transfected cells; cell membranes used
# Assay: in vitro radioligand binding, competition for [3H]LSD binding in membranes of HEK293 cells
# Settings: [3H]LSD (5 nM), HEK293 cell membranes, pH 7.4, 37° C., 60 min
# Description: This example illustrates in vitro radioligand binding studies of Compound of Formula I.
# The binding activity of compounds of this invention in vitro was determined as follows. Duplicate determinations of ligand affinity are made by competing for binding of [^3H]LSD in cell membranes derived from HEK293 cells stably expressing recombinant human 5-HT6 receptor.
# All determinations were made in assay buffer containing 50 mM Tris-HCl, 10 mM MgSO4, 0.5 mM EDTA, 1 mM ascorbic acid, pH 7.4 at 37° C., in a 250 microliter reaction volume. Assay tubes containing [3H] LSD (5 nM), competing ligand, and membrane were incubated in a shaking water bath for 60 min. at 37° C., filtered onto Packard GF-B plates (pre-soaked with 0.3% PEI) using a Packard 96 well cell harvester and washed 3 times in ice cold 50 mM Tris-HCl. Bound [^3H] LSD was determined as radioactive counts per minute using Packard TopCount.
# Displacement of [3H]LSD from the binding sites was quantified by fitting concentration-binding data to a 4-parameter logistic equation:
# [formula] where Hill is the Hill slope, [ligand] is the concentration of competing radioligand and IC50 is the concentration of radioligand producing half-maximal specific binding of radioligand. The specific binding window is the difference between the Bmax and the basal parameters.
# Using the procedures of Example 6, compounds of Formula I were tested and found to be selective 5-HT6 antagonists.
# T1 sequence (P50406 whole entry): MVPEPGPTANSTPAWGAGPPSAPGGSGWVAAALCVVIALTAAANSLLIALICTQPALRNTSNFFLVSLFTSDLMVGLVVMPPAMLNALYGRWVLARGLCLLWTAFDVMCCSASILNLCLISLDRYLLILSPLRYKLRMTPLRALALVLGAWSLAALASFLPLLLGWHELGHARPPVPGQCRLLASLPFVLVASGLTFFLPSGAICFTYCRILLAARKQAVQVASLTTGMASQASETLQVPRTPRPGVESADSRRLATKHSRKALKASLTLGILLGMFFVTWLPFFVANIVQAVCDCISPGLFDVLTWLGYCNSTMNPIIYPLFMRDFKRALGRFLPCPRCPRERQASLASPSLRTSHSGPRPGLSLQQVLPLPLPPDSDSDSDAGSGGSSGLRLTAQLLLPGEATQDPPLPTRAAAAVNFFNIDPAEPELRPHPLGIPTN
row,pKi,Structure (SMILES)
1,9.10,"CN1CCN(c2cccc3cc(S(=O)(=O)c4ccccc4)[nH]c23)CC1 [Compound 2, 2-Benzenesulfonyl-7-(4-methyl-piperazin-1-yl)-1H-indole]"
2,9.70,"O=S(=O)(c1cc2cccc(N3CCNCC3)c2[nH]1)c1cccc(Cl)c1Cl [Compound 3, 2-(2,3-Dichloro-benzenesulfonyl)-7-piperazin-1-yl-1H-indole]"
3,9.10,"CN1CCN(c2cccc3cc(S(=O)(=O)c4cccc(Cl)c4Cl)[nH]c23)CC1 [Compound 4, 2-(2,3-Dichloro-benzenesulfonyl)-7-(4-methyl-piperazin-1-yl)-1H-indole]"
4,9.30,"O=S(=O)(c1cc2cccc(N3CCNCC3)c2[nH]1)c1ccccc1F [Compound 5, 2-(2-Fluoro-benzenesulfonyl)-7-piperazin-1-yl-1H-indole]"
5,9.20,"O=S(=O)(c1ccccc1)c1cc2cccc(C3CCNCC3)c2[nH]1 [Compound 6, 2-Benzenesulfonyl-7-piperidin-4-yl-1H-indole]"
6,9.00,"CN1CCC(c2cccc3cc(S(=O)(=O)c4ccccc4)[nH]c23)CC1 [Compound 7, 2-Benzenesulfonyl-7-(1-methyl-piperidin-4-yl)-1H-indole]"
7,9.50,"CN1CCN(c2cccc3cc(S(=O)(=O)c4ccccc4C(F)(F)F)[nH]c23)CC1 [Compound 8, 7-(4-Methyl-piperazin-1-yl)-2-(2-trifluoromethyl-benzenesulfonyl)-1H-indole]"
8,9.50,"O=S(=O)(c1cc2cccc(N3CCNCC3)c2[nH]1)c1ccccc1C(F)(F)F [Compound 9, 7-Piperazin-1-yl-2-(2-trifluoromethyl-benzenesulfonyl)1H-indole]"
9,9.60,"CN1CCN(c2cccc3cc(S(=O)(=O)c4cccc(Br)c4)[nH]c23)CC1 [Compound 10, 2-(3-Bromo-benzenesulfonyl)-7-(4-methyl-piperazin-1-yl)-1H-indole]"
10,9.30,"O=S(=O)(c1cccc(Br)c1)c1cc2cccc(N3CCNCC3)c2[nH]1 [Compound 11, 2-(3-Bromo-benzenesulfonyl)-7-piperazin-1-yl-1H-indole]"

row,Structure (SMILES),pKi
1,"O=S(=O)(c1ccccc1)c1cc2cccc(N3CCNCC3)c2[nH]1 [Compound 1, 2-Benzenesulfonyl-7-piperazin-1-yl-1H-indole]",9.30
